The record followed here is patent publication US12479834B2, “Phenol compound or salt thereof” (TAIHO PHARMACEUTICAL CO., LTD., priority 2019, dated 2025).

One test concerns the target T1, G12C K-Ras4B (1-169) (Homo sapiens, UniProt P01116, G12C).
T1 construct: G12C K-Ras4B (1-169) protein, which was a KRAS G12C mutant; His tag (N, cleaved yes); made in house; host or cells: E. coli BL21 (DE3)
In words: Binding to KRAS G12C mutant, compound binding rate by LC-MS. Particulars: final compound concentration 2 μM, 1 μM protein, 2 hours at 25° C. From the text:
K-Ras4B (1-169) protein was expressed in E. coli strain BL21 (DE3) by synthesizing a nucleotide sequence encoding the amino acid sequence represented by GenPept ID NP_004976 as a sequence optimized for E. coli by use of GeneArt Technology (Life Technologies Corp.) such that the protein was N-terminally His-tagged and fused with a TEV protease recognition sequence (ENLYFQG). The expressed His-tagged K-Ras4B (1-169) was purified through a Ni column, then cleaved at its tag with N-terminally His-tagged TEV protease, and passed through a Ni column again to recover a flow-through fraction, which was further purified by anion-exchange chromatography to obtain the protein. G12C K-Ras4B (1-169) protein, which was a KRAS G12C mutant, was obtained in the same way as in the K-Ras4B(1-169) protein except that glycine at position 12 of the amino acid sequence represented by GenPept ID NP_004976 was mutated to cysteine.
The K-Ras4B (1-169) protein and the G12C K-Ras4B (1-169) protein were mixed and diluted with a buffer solution (1×TBS and 0.1 mM TCEP) to prepare a protein solution containing 1 μM each of the proteins. Each test compound was dissolved at 10 mM in DMSO and further diluted 10-fold with DMSO to make a 1 mM solution. Then, the solution was diluted 5-fold with DMSO to make a 200 μM solution. The 200 μM solution was further diluted 5-fold to make a […] solution. 1 μL of the 40 μM test compound was added to 19 μL of the 1 μM protein solution such that the final compound concentration was 2 μM. The mixture was stored for 2 hours in an incubator of 25° C., and the reaction was terminated by the addition of 80 μL of a 1×TBS solution containing 0.2% formic acid, followed by LC-MS measurement.
The LC-MS measurement was performed by using Xevo G2-S Q-Tof manufactured by Waters Corp., performing reverse-phase chromatography with a desalting column, and obtaining mass spectra of positive ions by electrospray. For the mass spectra, spectra of polyvalent ions were collectively converted to molecular weights by the MaxEnt technique using OpenLynx software, and then, a compound binding rate was obtained from the ratio of […].
The binding rates of test compounds having a final compound concentration of 2 μM for G12C K-Ras4B (1-169) are shown in the table below. The binding rate for G12C K-Ras4B (1-169) is rated “A” for 80% or more, “B” for 60% or more and less than 80%, “C” for 40% or more and less than 60%, “D” for 20% or more and less than 40%, and “E” for less than 20%.

A further test deals with T2, KRAS G12C mutant (Homo sapiens, UniProt P01116, G12C).
T2 construct: 50 μM G12C K-Ras4B (1-169) protein and 1 mM BODIPY® FL GDP; His tag (N, cleaved yes); made in house; host or cells: E. coli BL21 (DE3)
In words: Inhibition of SOS1-mediated nucleotide (GDP-GTP) exchange reaction of KRAS G12C mutant, BODIPY FL GDP fluorescence. Format: biochemical. To be noted: preincubated 25° C. 4 hours with 25 nM KRAS G12C bound with BODIPY FL GDP; SOS1 100 nM, GppNHp 1 μM, 30 minutes. From the text: SOS1 protein was expressed in E. coli strain BL21 (DE3) by synthesizing a nucleotide sequence encoding the amino acid sequence represented by GenPept ID NP_005624 as a sequence optimized for E. coli by use of GeneArt Technology (Life Technologies Corp.) such that the protein was N-terminally His-tagged and fused with a TEV protease recognition sequence (ENLYFQG). The expressed His-tagged SOS1 (564-1049) was purified through a Ni column, then cleaved at its tag with N-terminally His-tagged TEV protease, and passed through a Ni column again to recover a flow-through fraction to obtain the protein.
Each compound was studied for its inhibitory effect on the exchange reaction of GDP into GppNHp in BODIPY® FL bound with the KRAS G12C mutant by fluorescence measurement using the G12C K-Ras4B (1-169) protein and the SOS1 protein.
For the preparation of the KRAS G12C mutant bound with BODIPY® FL GDP, first, 50 μM G12C K-Ras4B (1-169) protein and 1 mM BODIPY® FL GDP (Invitrogen Corp., G22360) were incubated for 1 hour in a buffer solution (20 mM Tris-HCl (pH 7.5), 50 mM NaCl, and 1 mM DTT) in ice in the presence of 2.5 mM EDTA. Then, MgCl2 was added thereto at a final concentration of 10 mM, then the mixture was incubated at room temperature for 30 minutes, and then, the protein was passed through a NAP-5 column for removal of free nucleotides and used for compound evaluation.
For the measurement of the inhibitory activity of compounds against nucleotide exchange reaction, first, the compound of the present invention was serially diluted with DMSO. Subsequently, the serially diluted solution of the compound of the present invention in DMSO (final concentration of DMSO: 5%) and the KRAS G12C mutant (25 nM) bound with BODIPY® FL GDP were added into a reaction buffer solution (20 mM Tris-HCl (pH 7.5), 100 mM NaCl, 1 mM MgCl2, 2 mM DTT, and 0.1% Tween 20), and the mixture was preincubated at 25° C. for 4 hours. Then, Son of Sevenless Homolog 1 (SOS1, amino acid region: 564-1049) and GppNHp (GMPPNP, Jena Bioscience GmbH, NU-401-50) were added thereto at final concentrations of 100 nM and 1 μM, respectively, and the mixture was reacted for 30 minutes. The change in fluorescence intensity of BODIPY® FL (excitation wavelength: 485 nm, fluorescence wavelength: 520 nm) between immediately after the start of reaction and after 30 minutes from the start of reaction was standardized, and then, the compound concentration at which 50% inhibition was achieved was calculated as IC50 (nM) when the signal value for only DMSO was defined as 0% inhibition and the signal value for no addition of GppNHp was defined as 100% inhibition.

The term IC50 denotes the concentration needed to halve the response being measured. On to `C=CC(=O)N1CC(NC(=O)c2ccc(CNc3cc(C(=C)C)c(Cl)cc3O)o2)C1` [Example 47, N-(1-Acryloylazetidin-3-yl)-5-(((4-chloro-2-hydroxy-5-(prop-1-en-2-yl)phenyl)amino)methyl)furan-2-carboxamide], for which, on G12C K-Ras4B (1-169), the “binding rate for G12C K-Ras4B (1-169)” value was “D (20% or more and less than 40%)”. At KRAS G12C mutant, this compound yielded an IC50 of 4740 nM.

In the case of `C=CC(=O)N1CC(NC(=O)c2ccc(CNc3cc(C(C)C)c(Cl)cc3O)o2)C1` [Example 48, N-(1-Acryloylazetidin-3-yl)-5-(((4-chloro-2-hydroxy-5-isopropylphenyl)amino)methyl)furan-2-carboxamide], at G12C K-Ras4B (1-169), the “binding rate for G12C K-Ras4B (1-169)” value was “D (20% or more and less than 40%)”. For the same compound, half-maximal inhibition at KRAS G12C mutant (IC50) required 3970 nM.

Regarding `C=CC(=O)N1CC(N(C)C(=O)c2ccc(CNc3cc(OC(F)(F)F)c(Cl)cc3O)o2)C1` [Example 49, N-(1-Acryloylazetidin-3-yl)-5-(((4-chloro-2-hydroxy-5-(trifluoromethoxy)phenyl)amino)methyl)-N-methylfuran-2-carboxamide], at G12C K-Ras4B (1-169), the “binding rate for G12C K-Ras4B (1-169)” value is “E (less than 20%)”. This compound yielded an IC50 against KRAS G12C mutant of 1140 nM.

On to `C=CC(=O)N1CC(NC(=O)c2ccc(CNc3cc(C(F)(F)F)c(Cl)cc3O)o2)C1` [Example 50, N-(1-Acryloylazetidin-3-yl)-5-(((4-chloro-2-hydroxy-5-(trifluoromethyl)phenyl)amino)methyl)furan-2-carboxamide], for which the “binding rate for G12C K-Ras4B (1-169)” value at G12C K-Ras4B (1-169) was “D (20% or more and less than 40%)”. This compound also came in with an IC50 at KRAS G12C mutant of 3140 nM.

Regarding `C=CC(=O)N1CC(NC(=O)c2ccc(CNc3cc(C4CC4(F)F)c(Cl)cc3O)o2)C1` (stereo not shown) [Example 51, N-(1-Acryloylazetidin-3-yl)-5-(((4-chloro-5-(2,2-difluorocyclopropyl)-2-hydroxyphenyl)amino)methyl)furan-2-carboxamide], the “binding rate for G12C K-Ras4B (1-169)” value at G12C K-Ras4B (1-169) was “C (40% or more and less than 60%)”. In addition, the IC50 at KRAS G12C mutant amounted to 763 nM.

Consider `C=CC(=O)N1CC(NC(=O)c2ccc(CNc3cc(C4CC4)c(Cl)cc3O)o2)C1` [Example 52, N-(1-Acryloylazetidin-3-yl)-5-(((4-chloro-5-cyclopropyl-2-hydroxyphenyl)amino)methyl)furan-2-carboxamide], for which, at G12C K-Ras4B (1-169), the “binding rate for G12C K-Ras4B (1-169)” value was “D (20% or more and less than 40%)”. For the same compound, 2090 nM corresponded to half-maximal inhibition against KRAS G12C mutant (IC50).

For `C=CC(=O)N1CC(NC(=O)c2ccc(CNc3cc(C4CCC4)c(Cl)cc3O)o2)C1` [Example 53, N-(1-Acryloylazetidin-3-yl)-5-(((4-chloro-5-cyclobutyl-2-hydroxyphenyl)amino)methyl)furan-2-carboxamide], the “binding rate for G12C K-Ras4B (1-169)” value at G12C K-Ras4B (1-169) is reported as “E (less than 20%)”. The compound further showed an IC50 against KRAS G12C mutant of 5970 nM.

Turning to `C=CC(=O)N1CC(NC(=O)c2cnc(CNc3cc(C(F)(F)F)c(Cl)cc3O)n2C)C1` [Example 54, N-(1-Acryloylazetidin-3-yl)-2-(((4-chloro-2-hydroxy-5-(trifluoromethyl)phenyl)amino)methyl)-1-methyl-1H-imidazole-5-carboxamide], the “binding rate for G12C K-Ras4B (1-169)” value at G12C K-Ras4B (1-169) was “C (40% or more and less than 60%)”. The same compound came in with an IC50 against KRAS G12C mutant of 420 nM.

As to `C=CC(=O)N1CC(NC(=O)c2cnc(CNc3cc(C4CC4(F)F)c(Cl)cc3O)n2C)C1` (stereo not shown) [Example 55, N-(1-Acryloylazetidin-3-yl)-2-(((4-chloro-5-(2,2-difluorocyclopropyl)-2-hydroxyphenyl)amino)methyl)-1-methyl-1H-imidazole-5-carboxamide], the “binding rate for G12C K-Ras4B (1-169)” value at G12C K-Ras4B (1-169) is “C (40% or more and less than 60%)”. Besides, half-maximal inhibition against KRAS G12C mutant (IC50) was put at 122 nM.

Consider `C=CC(=O)N1CC(NC(=O)c2cnc(CNc3cc(CC(F)(F)F)c(Cl)cc3O)n2C)C1` [Example 56, N-(1-Acryloylazetidin-3-yl)-2-(((4-chloro-2-hydroxy-5-(2,2,2-trifluoroethyl)phenyl)amino)methyl)-1-methyl-1H-imidazole-5-carboxamide], for which, at G12C K-Ras4B (1-169), the “binding rate for G12C K-Ras4B (1-169)” value is recorded as “E (less than 20%)”. Also, the IC50 against KRAS G12C mutant came out at 599 nM.

Take `C=CC(=O)N1CC(NC(=O)c2cnc(CNc3cc(C(=C)C(F)(F)F)c(Cl)cc3O)n2C)C1` [Example 57, N-(1-Acryloylazetidin-3-yl)-2-(((4-chloro-2-hydroxy-5-(3,3,3-trifluoroprop-1-en-2-yl)phenyl)amino)methyl)-1-methyl-1H-imidazole-5-carboxamide]: the “binding rate for G12C K-Ras4B (1-169)” value at G12C K-Ras4B (1-169) is “D (20% or more and less than 40%)”. The compound further showed a concentration for half-maximal inhibition (IC50) at KRAS G12C mutant of 522 nM.

As for `C=CC(=O)N1CC(NC(=O)c2cnc(CNc3cc(S(F)(F)(F)(F)F)c(Cl)cc3O)n2C)C1` [Example 58, N-(1-Acryloylazetidin-3-yl)-2-(((4-chloro-2-hydroxy-5-(pentafluoro-λ6-sulfaneyl)phenyl)amino)methyl)-1-methyl-1H-imidazole-5-carboxamide], on G12C K-Ras4B (1-169), the “binding rate for G12C K-Ras4B (1-169)” value is “D (20% or more and less than 40%)”. At KRAS G12C mutant, this compound yielded an IC50 of 995 nM.

`C=CC(=O)N1CC(NC(=O)c2cnc(CNc3cc(C(C)C(F)(F)F)c(Cl)cc3O)n2C)C1` (stereo not shown) [Example 59, N-(1-Acryloylazetidin-3-yl)-2-(((4-chloro-2-hydroxy-5-(1,1,1-trifluoropropan-2-yl)phenyl)amino)methyl)-1-methyl-1H-imidazole-5-carboxamide]: the “binding rate for G12C K-Ras4B (1-169)” value on G12C K-Ras4B (1-169) was “B (60% or more and less than 80%)”. Moreover, at KRAS G12C mutant, the IC50 is 140 nM.

For the compound `C=CC(=O)N1CC(NC(=O)c2cnc(CNc3cc(C(C)C)c(Cl)cc3O)n2C)C1` [Example 60, N-(1-Acryloylazetidin-3-yl)-2-(((4-chloro-2-hydroxy-5-isopropylphenyl)amino)methyl)-1-methyl-1H-imidazole-5-carboxamide], on G12C K-Ras4B (1-169), the “binding rate for G12C K-Ras4B (1-169)” value is reported as “A (80% or more)”. At KRAS G12C mutant, this compound came in with an IC50 of 37 nM.
